Laboratory results as given in patent US12180304B2 (Zhejiang University, priority 2020, dated 2024).

Target: T1, intact recombinant antibody against clothianidin and dinotefuran (Mus musculus, UniProt P01837+P01868)
T1 construct: The heavy and light chain variable region genes were ligated to linearized expression vectors pCDNA3.4-Mouse-IgG1 and pCDNA3.4-Mouse-Kappa; mouse IgG1 heavy chain constant region (fusion partner); mouse kappa light chain constant region (fusion partner); made in house; host or cells: HEK293F cells, double-plasmid transfection, Protein A purification
Assay: heterologous indirect competitive ELISA (thiacloprid-OVA coating antigen)
Assay type: binding
Procedure: In the early stage of preparation of parental ascitic monoclonal antibodies, a difference in sensitivity was compared between the homologous indirect competitive ELISA (coating antigen was clothianidin-OVA) and the heterologous indirect ELISA (coating antigens were thiacloprid-OVA and imidaclothiz-OVA).
In the present disclosure, the specificity of the antibody was evaluated by detecting the cross-reactivity with eight common neonicotinoid insecticides.

Structure (SMILES)	linear range (IC20 to IC80)
CN/C(=N/CC1CCOC1)N[N+](=O)[O-] (centres unmarked) [dinotefuran]	3.78 to 30.03 ng/mL
CN/C(=N\[N+](=O)[O-])NCc1cnc(Cl)s1 [clothianidin]	1.08 to 15.06 ng/mL
